{"source": "patent US20080274060A1", "about": "“Therapeutic Foam” (priority 2005, published 2008)", "test": "In vitro absorption of foam/gas in fresh human venous blood", "format": "in vitro ADME", "description": "In vitro experiments were conducted to determine the absorption of foam made with different gases in fresh human venous blood.\nA 20 ml polypropylene syringe barrel was prepared by puncturing its side wall with a relatively large hypodermic needle to make a hole approximately 1 mm in diameter. This hole was then covered by securing a piece of clear flexible vinyl sheet over it with clear adhesive tape. A small magnetic stirrer element was introduced into the syringe barrel and the plunger then replaced. 20 ml of human venous blood was then with withdrawn in the usual manner from a human subject using the specially prepared syringe fitted with a hypodermic needle.\nThe hypodermic needle was removed and the syringe then placed on a magnetic stirrer unit so that the magnetic element in the syringe thoroughly agitated the blood. The Luer nozzle of the syringe was then connected to a 50 cm piece of manometer tubing which was arranged horizontally and left open at one end. The manometer tubing was secured against a scale.\nA 0.5 ml measuring syringe with a fine pre-fitted needle was then filled with foam made from 1% polidocanol solution and air.\nThe needle of the 0.5 ml syringe was then introduced through the vinyl sheet on the side wall of the 20 ml syringe. […] The 0.5 ml aliquot of foam was then injected quickly and simultaneously a timer started (t0). As the foam displaced blood in the 20 ml syringe, the column of blood from the 20 ml syringe was displaced into the manometer tubing and the distance along the tubing reached by the distal end of the blood column was noted against the scale. The scale itself comprised spaced marker lines equally spaced at about 1 cm intervals.\nAs the gas in the foam started to be absorbed by the blood, the blood in the manometer tubing started to recede back towards the syringe. After the column appeared to have stopped moving, the timer was stopped (tF). The position of the distal end was again noted.\nIn this experiment, the air foam test was only observed for a few minutes after tF. […] A 20 ml syringe of fresh human venous blood, as in the above experiments, was injected with a 0.5 ml aliquot of a foam containing a percentage of nitrogen. The contents of the syringe were agitated as above and a period of 24 hours allowed to elapse.", "data": [{"smiles": "O=O", "note": "[Oxygen gas, oxygen gas]", "values": [{"measurement": "Absorbed volume at tF", "setting": "0.5 ml aliquot in 20 ml blood", "result": 0.46, "unit": "mL"}, {"measurement": "Unabsorbed gas %", "setting": "at tF", "result": 8, "unit": "%"}, {"measurement": "Unabsorbed gas ml", "setting": "at tF", "result": 0.04, "unit": "mL"}, {"measurement": "Position of blood at tF (\"z\")", "setting": "manometer scale intervals, 45 intervals approx. 0.5 ml", "result": 5.5}, {"measurement": "tF", "setting": "time until blood column stopped moving, 0.5 ml aliquot in 20 ml blood", "result": 140, "unit": "s"}]}]}
